How the values were obtained:
MERS-CoV 3CLpro = MERS-CoV 3CLpro (Middle East respiratory syndrome-related coronavirus, UniProt K9N7C7); assay: biochemical
HCoV-229E 3CLpro = HCoV-229E 3CLpro (Human coronavirus 229E, UniProt P0C6X1); assay: HCoV-229E 3CLpro inhibition assay (FRET); type: biochemical
SARS-CoV-2 3CLpro = SARS-CoV-2 3CLpro (Severe acute respiratory syndrome coronavirus 2, UniProt P0DTD1); assay: biochemical
SARS-CoV 3CLpro = SARS-CoV 3CLpro (Severe acute respiratory syndrome coronavirus, UniProt P0C6X7); assay: biochemical

MERS-CoV 3CLpro, sequence (K9N7C7 3248-3553): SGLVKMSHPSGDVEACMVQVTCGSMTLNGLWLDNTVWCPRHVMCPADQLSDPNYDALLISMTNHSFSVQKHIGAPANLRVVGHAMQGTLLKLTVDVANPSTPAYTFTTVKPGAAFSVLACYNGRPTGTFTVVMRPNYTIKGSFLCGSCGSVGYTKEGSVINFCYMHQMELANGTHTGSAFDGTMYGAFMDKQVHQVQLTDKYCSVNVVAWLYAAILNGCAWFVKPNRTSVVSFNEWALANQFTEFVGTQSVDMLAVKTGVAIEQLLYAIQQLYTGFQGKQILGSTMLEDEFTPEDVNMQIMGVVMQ
HCoV-229E 3CLpro, sequence (P0C6X1 2966-3267): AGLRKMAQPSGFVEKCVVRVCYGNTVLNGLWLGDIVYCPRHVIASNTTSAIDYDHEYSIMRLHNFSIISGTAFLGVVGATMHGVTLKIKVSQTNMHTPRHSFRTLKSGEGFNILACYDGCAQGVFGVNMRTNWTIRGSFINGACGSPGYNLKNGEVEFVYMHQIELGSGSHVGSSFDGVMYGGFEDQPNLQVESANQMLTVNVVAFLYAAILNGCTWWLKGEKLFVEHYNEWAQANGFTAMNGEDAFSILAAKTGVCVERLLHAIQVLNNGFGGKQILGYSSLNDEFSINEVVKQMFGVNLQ

SMILES: CC1(C)[C@@H]2[C@@H](C(=O)NN(C[C@@H]3CCNC3=O)C(=O)[C@H](F)Cl)N(C(=O)/C=C/c3cc(F)cc(F)c3)C[C@@H]21 [Example 181, (1R,2S,5S)—N′-[(2R)-2-chloro-2-fluoro-acetyl]-3-[(E)-3-(3,5-difluorophenyl)prop-2-enoyl]-6,6-dimethyl-N′—[[(3S)-2-oxopyrrolidin-3-yl]methyl]-3-azabicyclo[3.1.0]hexane-2-carbohydrazide]
- IC50 (MERS-CoV 3CLpro): 363 nM
- IC50 (HCoV-229E 3CLpro): 48 nM
- IC50 (SARS-CoV-2 3CLpro): 208 nM
- IC50 (SARS-CoV 3CLpro): 252 nM

SMILES: CC(C)(C)[C@H](NC(=O)[C@H]1CC1(F)F)C(=O)N1C[C@@H]2CCC[C@@H]2[C@H]1C(=O)NN(C[C@@H]1CCNC1=O)C(=O)[C@@H](F)Cl [Example 104, (1R)—N-[(1S)-1-[(3S,3aS,6aR)-3-[[[(2S)-2-chloro-2-fluoro-acetyl]-[[(3S)-2-oxopyrrolidin-3-yl]methyl]amino]carbamoyl]-3,3a,4,5,6,6a-hexahydro-1H-cyclopenta[c]pyrrole-2-carbonyl]-2,2-dimethyl-propyl]-2,2-difluoro-cyclopropanecarboxamide]
- IC50 (MERS-CoV 3CLpro): 128 nM
- IC50 (HCoV-229E 3CLpro): 55 nM
- IC50 (SARS-CoV-2 3CLpro): 12 nM
- IC50 (SARS-CoV 3CLpro): 20 nM

SMILES: CC(C)(C)[C@H](NC(=O)[C@@H]1CC1(F)F)C(=O)N1C[C@@H]2CCC[C@@H]2[C@H]1C(=O)NN(C[C@@H]1CCNC1=O)C(=O)[C@@H](F)Cl [Example 101, (1S)—N-[(1S)-1-[(3S,3aS,6aR)-3-[[[(2S)-2-chloro-2-fluoro-acetyl]-[[(3S)-2-oxopyrrolidin-3-yl]methyl]amino]carbamoyl]-3,3a,4,5,6,6a-hexahydro-1H-cyclopenta[c]pyrrole-2-carbonyl]-2,2-dimethyl-propyl]-2,2-difluoro-cyclopropanecarboxamide]
- IC50 (MERS-CoV 3CLpro): 94 nM
- IC50 (HCoV-229E 3CLpro): 40 nM
- IC50 (SARS-CoV-2 3CLpro): 9 nM
- IC50 (SARS-CoV 3CLpro): 13 nM

SMILES: CSCC[C@H](NC(=O)C(F)(F)F)C(=O)N1C[C@H]2[C@@H]([C@H]1C(=O)NN(C[C@@H]1CCNC1=O)C(=O)[C@H](F)Cl)C2(C)C [Example 69, N-[(1S)-1-[(1R,2S,5S)-2-[[[(2R)-2-chloro-2-fluoro-acetyl]-[[(3S)-2-oxopyrrolidin-3-yl]methyl]amino]carbamoyl]-6,6-dimethyl-3-azabicyclo[3.1.0]hexane-3-carbonyl]-3-methylsulfanyl-propyl]-2,2,2-trifluoro-acetamide]
- IC50 (MERS-CoV 3CLpro): 249 nM
- IC50 (HCoV-229E 3CLpro): 53 nM
- IC50 (SARS-CoV-2 3CLpro): 11 nM
- IC50 (SARS-CoV 3CLpro): 28 nM

SMILES: CC[C@H](C)[C@H](NC(=O)C(F)(F)F)C(=O)N1C[C@H]2[C@@H]([C@H]1C(=O)NN(C[C@@H]1CCNC1=O)C(=O)[C@@H](F)Cl)C2(C)C [Example 107, N-[(1S,2S)-1-[(1R,2S,5S)-2-[[[(2S)-2-chloro-2-fluoro-acetyl]-[[(3S)-2-oxopyrrolidin-3-yl]methyl]amino]carbamoyl]-6,6-dimethyl-3-azabicyclo[3.1.0]hexane-3-carbonyl]-2-methyl-butyl]-2,2,2-trifluoro-acetamide]
- IC50 (MERS-CoV 3CLpro): 111 nM
- IC50 (HCoV-229E 3CLpro): 40 nM
- IC50 (SARS-CoV-2 3CLpro): 18 nM
- IC50 (SARS-CoV 3CLpro): 25 nM

SMILES: CC[C@H](C)[C@H](NC(=O)C(C)F)C(=O)N1C[C@H]2[C@@H]([C@H]1C(=O)NN(C[C@@H]1CCNC1=O)C(=O)[C@H](F)Cl)C2(C)C (mixture of isomers) [Example 56, Rac-2-fluoro-N-[(1S,2S)-2-methyl-1-[(1R,2S,5S)-6,6-dimethyl-2-[[[(2R)-2-chloro-2-fluoro-acetyl]-[[(3S)-2-oxopyrrolidin-3-yl]methyl]amino]carbamoyl]-3-azabicyclo[3.1.0]hexane-3-carbonyl]butyl]propanamide]
- IC50 (MERS-CoV 3CLpro): 52 nM
- IC50 (HCoV-229E 3CLpro): 18 nM
- IC50 (SARS-CoV-2 3CLpro): 8 nM
- IC50 (SARS-CoV 3CLpro): 11 nM

SMILES: O=C1NCC[C@H]1CN(NC(=O)[C@H]1[C@@H]2CCC[C@@H]2CN1C(=O)COc1cccc(F)c1)C(=O)[C@H](F)Cl [Example 88b, (3R,3aR,6aS)—N′-[(2R)-2-chloro-2-fluoro-acetyl]-2-[2-(3-fluorophenoxy)acetyl]-N′—[[(3S)-2-oxopyrrolidin-3-yl]methyl]-3,3a,4,5,6,6a-hexahydro-1H-cyclopenta[c]pyrrole-3-carbohydrazide]
- IC50 (MERS-CoV 3CLpro): 155 nM
- IC50 (SARS-CoV-2 3CLpro): > 10000 nM

SMILES: CCC(C)(C)[C@H](NC(=O)[C@H](C)F)C(=O)N1C[C@H]2[C@@H]([C@H]1C(=O)NN(C[C@@H]1CCNC1=O)C(=O)[C@H](F)Cl)C2(C)C [Example 140, (2S)—N-[(1S)-1-[(1R,2S,5S)-2-[[[(2R)-2-chloro-2-fluoro-acetyl]-[[(3S)-2-oxopyrrolidin-3-yl]methyl]amino]carbamoyl]-6,6-dimethyl-3-azabicyclo[3.1.0]hexane-3-carbonyl]-2,2-dimethyl-butyl]-2-fluoro-propanamide]
- IC50 (MERS-CoV 3CLpro): 94 nM
- IC50 (HCoV-229E 3CLpro): 31 nM
- IC50 (SARS-CoV-2 3CLpro): 11 nM
- IC50 (SARS-CoV 3CLpro): 25 nM

SMILES: O=C1NCC[C@H]1CN(NC(=O)[C@H]1[C@@H]2CCC[C@@H]2CN1C(=O)COc1cc(F)cc(F)c1)C(=O)[C@H](F)Cl [Example 89b, (3R,3aR,6aS)—N′-[(2R)-2-chloro-2-fluoro-acetyl]-2-[2-(3,5-difluorophenoxy)acetyl]-N′—[[(3S)-2-oxopyrrolidin-3-yl]methyl]-3,3a,4,5,6,6a-hexahydro-1H-cyclopenta[c]pyrrole-3-carbohydrazide]
- IC50 (MERS-CoV 3CLpro): 193 nM
- IC50 (SARS-CoV-2 3CLpro): > 10000 nM

SMILES: CCC(CC)[C@H](NC(=O)C(F)(F)F)C(=O)N1C[C@H]2[C@@H]([C@H]1C(=O)NN(C[C@@H]1CCNC1=O)C(=O)[C@H](F)Cl)C2(C)C [Example 84, N-[(1S)-1-[(1R,2S,5S)-2-[[[(2R)-2-chloro-2-fluoro-acetyl]-[[(3S)-2-oxopyrrolidin-3-yl]methyl]amino]carbamoyl]-6,6-dimethyl-3-azabicyclo[3.1.0]hexane-3-carbonyl]-2-ethyl-butyl]-2,2,2-trifluoro-acetamide]
- IC50 (MERS-CoV 3CLpro): 87 nM
- IC50 (HCoV-229E 3CLpro): 30 nM
- IC50 (SARS-CoV 3CLpro): 14 nM

SMILES: O=C1NCC[C@H]1CN(NC(=O)[C@@H]1[C@H]2CCC[C@H]2CN1C(=O)COc1cc(F)cc(F)c1)C(=O)[C@H](F)Cl [Example 89a, (3S,3aS,6aR)—N′-[(2R)-2-chloro-2-fluoro-acetyl]-2-[2-(3,5-difluorophenoxy)acetyl]-N′—[[(3S)-2-oxopyrrolidin-3-yl]methyl]-3,3a,4,5,6,6a-hexahydro-1H-cyclopenta[c]pyrrole-3-carbohydrazide]
- IC50 (MERS-CoV 3CLpro): > 10000 nM
- IC50 (SARS-CoV-2 3CLpro): 51 nM

SMILES: O=C1NCC[C@H]1CN(NC(=O)[C@@H]1[C@H]2CCC[C@H]2CN1C(=O)COc1cccc(F)c1)C(=O)[C@H](F)Cl [Example 88a, (3S,3aS,6aR)—N′-[(2R)-2-chloro-2-fluoro-acetyl]-2-[2-(3-fluorophenoxy)acetyl]-N′—[[(3S)-2-oxopyrrolidin-3-yl]methyl]-3,3a,4,5,6,6a-hexahydro-1H-cyclopenta[c]pyrrole-3-carbohydrazide]
- IC50 (MERS-CoV 3CLpro): 249 nM
- IC50 (SARS-CoV-2 3CLpro): 42 nM

SMILES: CC(C)(C)[C@H](NC(=O)C(F)(F)F)C(=O)N1C[C@H]2[C@@H]([C@H]1C(=O)NN(C[C@@H]1CCNC1=O)C(=O)CCl)C2(C)C [Example 18, N-[(1S)-1-[(1R,2S,5S)-2-[[(2-chloroacetyl)-[[(3S)-2-oxopyrrolidin-3-yl]methyl]amino]carbamoyl]-6,6-dimethyl-3-azabicyclo[3.1.0]hexane-3-carbonyl]-2,2-dimethyl-propyl]-2,2,2-trifluoro-acetamide]
- IC50 (MERS-CoV 3CLpro): 408 nM
- IC50 (SARS-CoV 3CLpro): 429 nM

SMILES: CC(C)(C)[C@H](NC(=O)C(F)(F)F)C(=O)N1CC2(CC2)C[C@H]1C(=O)NN(C[C@@H]1CCNC1=O)C(=O)[C@H](F)Cl [Example 6, N-[(1S)-1-[(6S)-6-[[[(2R)-2-chloro-2-fluoro-acetyl]-[[(3S)-2-oxopyrrolidin-3-yl]methyl]amino]carbamoyl]-5-azaspiro[2.4]heptane-5-carbonyl]-2,2-dimethyl-propyl]-2,2,2-trifluoro-acetamide]
- IC50 (MERS-CoV 3CLpro): 109 nM
- IC50 (HCoV-229E 3CLpro): 42 nM
- IC50 (SARS-CoV 3CLpro): 14 nM

SMILES: CC1(C)[C@@H]2[C@@H](C(=O)NN(C[C@@H]3CCNC3=O)C(=O)[C@H](F)Cl)N(C(=O)[C@H](CC34CC(C3)C4)NC(=O)C(F)(F)F)C[C@@H]21 [Example 65, N-[(1S)-1-(1-bicyclo[1.1.1]pentanylmethyl)-2-[(1R,2S,5S)-2-[[[(2R)-2-chloro-2-fluoro-acetyl]-[[(3S)-2-oxopyrrolidin-3-yl]methyl]amino]carbamoyl]-6,6-dimethyl-3-azabicyclo[3.1.0]hexan-3-yl]-2-oxo-ethyl]-2,2,2-trifluoro-acetamide]
- IC50 (HCoV-229E 3CLpro): 25 nM

SMILES: CC1(C)[C@@H]2[C@@H](C(=O)NN(C[C@@H]3CCNC3=O)C(=O)[C@H](F)Cl)N(C(=O)COc3cc(F)cc(F)c3)C[C@@H]21 [Example 17, (1R,2S,5S)—N′-[(2R)-2-chloro-2-fluoro-acetyl]-3-[2-(3,5-difluorophenoxy)acetyl]-6,6-dimethyl-N′—[[(3S)-2-oxopyrrolidin-3-yl]methyl]-3-azabicyclo[3.1.0]hexane-2-carbohydrazide]
- IC50 (MERS-CoV 3CLpro): 408 nM
- IC50 (SARS-CoV-2 3CLpro): 121 nM
- IC50 (SARS-CoV 3CLpro): 429 nM

SMILES: CC[C@H](C)[C@H](NC(=O)C(F)(F)C(F)(F)F)C(=O)N1C[C@@H]2CCC[C@@H]2[C@H]1C(=O)NN(C[C@@H]1CCNC1=O)C(=O)[C@H](F)Cl [Example 50, N-[(1S,2S)-1-[(3S,3aS,6aR)-3-[[[(2R)-2-chloro-2-fluoro-acetyl]-[[(3S)-2-oxopyrrolidin-3-yl]methyl]amino]carbamoyl]-3,3a,4,5,6,6a-hexahydro-1H-cyclopenta[c]pyrrole-2-carbonyl]-2-methyl-butyl]-2,2,3,3,3-pentafluoro-propanamide]
- IC50 (MERS-CoV 3CLpro): 42 nM
- IC50 (HCoV-229E 3CLpro): 17 nM
- IC50 (SARS-CoV 3CLpro): 8 nM

Source: US20250059171A1 (Hoffmann-La Roche Inc., priority 2021, published 2025)
